From patent US20120329158A1, “Methods of Plant Regeneration and Apparatus Therefor” (priority 2010, published 2012) come the findings set out here.

This test relates to sugarcane artificial seeds (Q208 and KQ228). The test is described as follows: Germination and conversion of sugarcane artificial seeds into plantlets in liquid MS medium with or without auxins. Particulars: MS medium supplemented with small amounts of auxin; varieties Q208 and KQ228 (FIG. 34). The procedure: Thirty-six artificial plant seeds (approx 15 mL) were placed into a sterile 250 mL Erlenmeyer flask with 85 mL of sterile MS liquid with 30 gL^−1 sucrose. Flasks were placed on the gyratory shaker trays at 120 rpm, 27° C.±1° C., and a 16 h photoperiod provided by cool white fluorescent tubes for 2-3 weeks. The media was decanted off and replaced every 3-4 days.
In this medium the artificial plant seeds germinated and produced normal plantlets within 3 weeks (FIG. 5). The seeds change from a transparent gel bead to a brown-black colour within the first few days of being placed into liquid culture. Within 7-10 days there is shoot production from the seeds and within two weeks the shoots are elongating and root production outside of the artificial plant seed begins. Within 3 weeks the plantlet has fully developed, with both extensive shoot and root production, outside of the gel. Variations in the rate of plantlet emergence are to be expected with different genotypes (FIG. 6 and FIG. 7). Typical growth conditions for liquid culture are 120 rpm and 27° C. with a 16 hour photoperiod.
In general, plantlets produced with growth regulators were stunted if hormone levels were 1 μM compared to those obtained from growth regulator-tee MS medium. As such, MS is typically used for the liquid culture medium. Regeneration of artificial plant seeds into plantlets at a rate of 70-90% is achievable. […]

Regarding `O=C(O)CCCc1c[nH]c2ccccc12` [indole-3 butyric acid (IBA), indole-3-butyric acid], the “conversion of artificial seeds to plantlets” value is “improved conversion of seeds to plantlets”. On to `O=C(O)Cc1cccc2ccccc12` [α-naphthaleneacetic acid (NAA), α-naphthaleneacetic acid], for which the “conversion of artificial seeds to plantlets” value is “improved conversion of seeds to plantlets”.
